{
  "source": "paper PMC8145596",
  "about": "“Novel Chemically Modified Curcumin (CMC) Derivatives Inhibit Tyrosinase Activity and Melanin Synthesis in B16F10 Mouse Melanoma Cells” (Biomolecules, 2021)",
  "key": {"[1]": {"test_system": "MNT-1 human melanoma cells", "assay": "MTS cytotoxicity assay in MNT-1 cells", "format": "cell-based", "conditions": "20 µM, 48 h", "method": "(§1) II. Experiments in MNT-1 human melanoma cells\n(§2) MNT-1 cells (kindly provided by Dr. Michael Marks, University of Pennsylvania) were cultured using DMEM supplemented with 1 % MEM (minimum essential medium), 18 % HI-FBS, 10 % AIM-V medium (Gibco) and 1 % antibiotic mixture.\n(§3) MNT-1 human melanoma cells (2 × 10^4 cells/ well) were seeded in a 96-well plate and cultured for 96 h. After this, the test compounds were added in complete medium and cultures were maintained for 48 h, followed by conducting the MTS assay to detect cytotoxicity similar to methods reports in main text. The results were expressed as % normalized to untreated control group.\n(§4) MNT-1 human melanoma cells were seeded at 2.2 × 10^5 cells/well in 12-well plates and incubated for 24 hours. […] Briefly, the absorbance of melanin was measured at 475 nm and was normalized to the total protein contents and reported as relative melanin levels as a % of control.\n(§5) Figure S3: Viability of MNT-1 cells treated with A) PC, CMC2.14 and CMC2.5 and B) CMC2.23 and CMC2.24 for a duration of 48 h evaluated by MTS assay; Data for A)-B) are mean ± SD of 3-4 determinations; C) Melanin content in cultures of MNT-1 cells treated for 48 h with different concentrations of PC and CMCs, Data are mean ± SD of values combined from two independent experiments. * p < 0.05 vs. control (Ctrl); One-way ANOVA with Tukey’s […]"}, "[2]": {"test_system": "MNT-1 human melanoma cells", "assay": "Melanin content assay in MNT-1 cells", "format": "cell-based", "conditions": "48 h; CMC2.24 at 20 µM; preliminary evaluation", "method": "as §1, §2, §3, §4, §5"}, "[3]": {"assay": "Copper chelating assay (pyrocatechol violet)", "method": "Copper chelation can be detected by a PV colorimetric assay as reported in other studies and similar to the method reported in our previous study. Briefly, 100 µL aliquots of different concentrations of compounds prepared in 50 mM sodium acetate buffer (pH 6.0) were added to a 96-well plate. The control group consisted of buffer only, while KA at 500 µM served as a positive control. Copper sulfate (2 mM; 10 µL) was added to each of the samples and incubated for 10 min. Next, 10 µL of 2 mM PV was added and the plate was further incubated for 20 min. The absorbance was read at 632 nm using a microplate reader; a lower absorbance compared to that of the buffer control was indicative of copper chelation."}, "breast cancer cells": {"test_system": "breast cancer cells", "design": "method as in PMID 31505772", "conditions": "cited from earlier work"}, "MTS cell viability assay": {"assay": "MTS cell viability assay", "format": "cell-based, mouse", "conditions": "mouse, B16F10 mouse melanoma cells, 48 h, B16F10", "method": "B16F10 mouse melanoma cells (CRL-6475™) were obtained from American Type Culture Collection (ATCC, Manassas, VA, USA) and cultured using Dulbecco’s Modified Eagle Medium (DMEM) supplemented with 10% heat-inactivated fetal bovine serum (HI-FBS) and 1% antibiotics (penicillin-streptomycin) in a humidified incubator with 95% air—5% CO2 at 37 °C. In order to test the four CMCs (CMC2.14, CMC2.24, CMC2.5 and CMC2.23) to that of PC, for their effects on melanin content, we first screened them for cytotoxicity using a tetrazolium assay with MTS (Promega CellTiter Aqueous One). Briefly, B16F10 cells were seeded at 4 × 10^3 cells/well in a 96-well plate for 24 h. The compounds were diluted using culture medium to yield a final DMSO in all groups of 0.16% and added to the cell monolayers in wells after 24 h. Control was treated with 0.16% DMSO. At the end of 48 h, the medium was aspirated and replaced by 100 μL of fresh medium. 20 μL of MTS reagent was then added, and the plate was incubated at 37 °C for 40 min. At this point, the absorbance of 100 μL aliquots was read at 490 nm using a microplate reader. Cell viability was calculated from the absorbance values relative to control groups and expressed in %."}},
  "data": [
    {"molecule": "O=C(/C=C/c1ccc(O)cc1)/C(C(=O)Nc1ccccc1)=C(O)/C=C/c1ccc(O)cc1", "note": "[CMC2.24]", "values": [
      {"measurement": "cytotoxicity in MNT-1 cells", "setting": "[1]", "result": "nontoxic"},
      {"measurement": "melanin inhibition in MNT-1 cells", "setting": "[2]", "result": "significant attenuation of melanin levels"},
      {"measurement": "copper chelating activity", "setting": "[3]; 20 µM, compared to the control", "result": 11.86, "unit": "%"}
    ]},
    {"molecule": "1,7-bis(4-hydroxy-3-methoxyphenyl)-1,6-heptadien-3,5-dione [PC, reference compound]", "values": [
      {"measurement": "concentrations highly cytotoxic to breast cancer cells", "setting": "breast cancer cells", "result": "> 10", "unit": "µM"},
      {"measurement": "melanin inhibition in MNT-1 cells", "setting": "[2]", "result": "ineffective"},
      {"measurement": "effect on copper chelation", "setting": "[3]", "result": "did not show any effect on copper chelation"}
    ]},
    {"molecule": "COC(=O)/C(C(=O)/C=C/c1ccc(O)cc1)=C(O)\\C=C\\c1ccc(O)cc1", "note": "[CMC2.14]", "values": [
      {"measurement": "viability at 48 h, 20 µM", "setting": "MTS cell viability assay; 20 µM", "result": 72.2, "unit": "%"},
      {"measurement": "viability at 48 h, 25 µM", "setting": "MTS cell viability assay; 25 µM", "result": 55.5, "unit": "%"}
    ]}
  ]
}
